These are literature values, as cited in patent US7473685B2, “Process for preparation of chemically stable, dry-flow, low compact, dust free, soluble granules of phosphoroamidothioates” (United Phosphorus, Ltd., priority 2001, dated 2009).

The data set has as its system aphids, leaf-miners, lepidopterous, larvae, sawflies and thrips. Particulars: systemic and contact insecticide of moderate persistence.

On to `COP(=O)(NC(C)=O)SC` (stereo not shown) [Acephate], for which the residual activity lasting was 10 to 15 days.
